# Experimental data published in patent US9006221B2, “Method of modulating ship activity” (H. Lee Moffitt Cancer Center and Reserach Institute, Inc., priority 2008, dated 2015).
# Experiments:
# SHIP2 = target: T1, SHIP2 (Homo sapiens, UniProt O15357); assay: FP assay of SHIP2 enzymatic activity; assay type: biochemical
# T1 sequence (O15357 1-1258): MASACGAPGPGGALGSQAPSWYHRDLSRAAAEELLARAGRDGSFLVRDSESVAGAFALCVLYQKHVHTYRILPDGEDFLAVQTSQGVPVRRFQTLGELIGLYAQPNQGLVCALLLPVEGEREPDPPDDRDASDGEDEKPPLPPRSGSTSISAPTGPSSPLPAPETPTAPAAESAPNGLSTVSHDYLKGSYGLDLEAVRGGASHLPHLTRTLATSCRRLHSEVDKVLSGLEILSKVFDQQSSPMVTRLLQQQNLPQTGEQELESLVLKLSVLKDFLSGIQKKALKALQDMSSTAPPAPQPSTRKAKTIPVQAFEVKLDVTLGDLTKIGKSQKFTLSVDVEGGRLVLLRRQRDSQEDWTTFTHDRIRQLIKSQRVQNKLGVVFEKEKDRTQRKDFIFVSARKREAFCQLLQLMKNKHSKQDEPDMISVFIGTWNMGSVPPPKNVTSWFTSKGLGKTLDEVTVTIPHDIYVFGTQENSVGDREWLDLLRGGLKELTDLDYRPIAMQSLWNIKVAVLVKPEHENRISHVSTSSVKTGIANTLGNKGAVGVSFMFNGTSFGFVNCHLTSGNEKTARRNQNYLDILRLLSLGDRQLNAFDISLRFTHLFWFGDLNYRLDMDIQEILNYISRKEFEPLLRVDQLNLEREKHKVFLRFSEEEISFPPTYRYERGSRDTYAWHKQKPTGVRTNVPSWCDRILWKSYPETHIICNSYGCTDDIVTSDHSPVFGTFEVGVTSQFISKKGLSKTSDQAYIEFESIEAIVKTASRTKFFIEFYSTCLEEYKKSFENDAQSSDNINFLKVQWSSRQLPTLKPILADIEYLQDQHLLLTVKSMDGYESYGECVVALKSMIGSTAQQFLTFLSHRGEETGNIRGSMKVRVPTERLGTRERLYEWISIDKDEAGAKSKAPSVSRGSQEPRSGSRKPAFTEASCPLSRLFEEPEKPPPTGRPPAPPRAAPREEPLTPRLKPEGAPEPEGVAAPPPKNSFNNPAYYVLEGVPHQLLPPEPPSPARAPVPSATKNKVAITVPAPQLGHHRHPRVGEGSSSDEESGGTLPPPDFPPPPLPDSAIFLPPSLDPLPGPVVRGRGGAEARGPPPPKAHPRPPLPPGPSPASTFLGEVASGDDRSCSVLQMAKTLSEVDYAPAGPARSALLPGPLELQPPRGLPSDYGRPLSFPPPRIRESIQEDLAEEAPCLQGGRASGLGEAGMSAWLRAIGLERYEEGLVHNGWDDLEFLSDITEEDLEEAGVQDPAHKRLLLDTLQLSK
# From the text: No Compound—FP assay conducted with purified SHIP1 or SHIP2 as indicated in the absence of inhibitor. No Enzyme—FP assay conducted in SHIP buffer and fluorescent substrate in the absence of enzyme.
# Thus far, none of the inhibitors have been identified as selective for SHIP1 over SHIP2. The majority of SHIP inhibitors identified show selectivity for 5′ inositol phosphatases and thus might be used to target SHIP1 or SHIP2 activity.
# Assay of SHIP1 enzymatic activity: A fluorescent polarization (FP) assay that detects the 5′-inositol phosphatase activity of SHIP1 was developed based on a previously established protocol [Drees B E, et al., Comb Chem High Throughput Screen (2003) 6(4):321-330] and was obtained from Echelon Biosciences (Salt Lake City, USA). Modifications of the protocol included the application of SHIP1 in the assay and an increase in the concentration of MgCl2 to […] to maximize the activity of SHIP1 in this assay. Each enzymatic reaction was performed in a 96 well working plate and added in the following order and concentration: Recombinant SHIP1 (0.1 μg) in PBS+20 mM MgCl2, 100 μM of each individual compound from the NCI Diversity Set and then PI(3,4,5)P3 substrate diluted 1:10 in H2O. The enzymatic reaction was incubated for 30 min at room temperature. The detector, reaction mixture and probe were then combined according to the SHIP2 protocol. […]
# [1] = mouse, in vivo
SMILES,inhibition of SHIP2 enzymatic activity (SHIP2),pulmonary myeloid infiltration and lung consolidation [1]
"OC(c1cc(-c2ccccc2)nc2c1ccc1ccccc12)C1CCCCN1 (stereo not drawn) [NSC13480, (2-phenylbenzo[h]quinolin-4-yl)-piperidin-2-ylmethanol]",inhibit both SHIP1 and SHIP2 enzymatic activity,
"CC(C)CCC[C@@H](C)[C@H]1CC[C@H]2[C@@H]3CC[C@H]4C[C@H](N)CC[C@]4(C)[C@H]3CC[C@]12C [NSC23922, (3R,5S,8R,9S,10S,13R,14S,17R)-10,13-dimethyl-17-[(2R)-6-methylheptan-2-yl]-2,3,4,5,6,7,8,9,11,12,14,15,16,17-tetradecahydro-1H-cyclopenta[a]phenanthren-3-amine]",inhibit both SHIP1 and SHIP2 enzymatic activity,absence of the pulmonary myeloid infiltration and lung consolidation
